According to patent US20240210394A1, “MICROORGANISM CAPTURE FROM ANTIMICROBIAL-CONTAINING SOLUTION” (MOMENTUM BIOSCIENCE LIMITED, priority 2019, published 2024):

Tested on: E. coli
Assay: Blood culture time to positivity (flip time), bead rescue vs no-rescue control
Assay type: cell-based
Details: Piperacillin 96 ug/mL blood; for Flip time in Days: No bead rescue Control BC; for Time to positivity in days: 1800 cfu/5 ml

CCN1CCN(C(=O)N[C@@H](C(=O)N[C@@H]2C(=O)N3[C@@H]2SC(C)(C)[C@@H]3C(=O)O)c2ccccc2)C(=O)C1=O [Piperacillin]
Neg: Flip time in Days (50000 cfu/5 mL) | Flip time in Days (150000 cfu/5 mL) | Time to positivity in days (Control (no beads)) | Time to positivity in days (with magnetic beads in the bottle)
